Reference: US20210038753A1, “BIOLOGICAL STERILIZATION INDICATOR WITH STERILANT RESISTANCE MODULATOR” (3M INNOVATIVE PROPERTIES COMPANY, priority 2014, published 2021)

Columns and labels:
[1] = tested on: Geobacillus stearothermophilus spores; assay: Resistance of self-contained biological indicators to hydrogen peroxide sterilization, glucosidase enzyme activity fluorescence readout (ENZ+); type: cell-based
Procedure: (§1) PET film (.09 mm thick) was coated with colloidal silica as described in International Publication No. WO2014/189716, which is incorporated herein by reference in its entirety. […] Separate aqueous spore coating solutions were prepared as described in Example 1 with the amino acids shown in table 4 present in the coating solutions. Two microliter aliquots (containing at least 10^6 spores) of the respective spore coating solutions were deposited onto the silica-coated PET film, forming a series of spaced-apart spots on the film. The spore coated films were dried in a 60° C. incubator for 12 minutes. Circular discs (hereinafter, “coated carriers”) of the PET film, each disc including one of the dried spots, were punched out and were used to assemble self-contained biological indicators (BI) similar to that shown in FIG. 1 of International Publication No. WO2014/189716. The coated carriers described above were placed into the “spore carrier 135” shown in FIG. 1 of International Publication No. WO2014/189716. Each self-contained BI comprised a polycarbonate outer container, a breaker, a cap, and a cap filter. Disposed inside the outer container were a coated carrier along with an ampoule media containing the nutrient medium from 3M ATTEST 1292 Rapid Readout Biological Indicators plus 5g/L methionine (as described in Example 1).
(§2) The self-contained biological indicators with different concentrations of additives (Table 4) were exposed to hydrogen peroxide sterilization in STERRAD NX sterilizer. The sterilization processes were run by manually injecting 1.0 ml of 59% hydrogen peroxide per load, unless specified otherwise. The exposure time was varied to determine the resistance profile of self-contained BIs with different additive formulations. The BIs were activated by pressing down the cap to break the media ampoule. The activated BIs were placed in a bench-top fluorimeter (3M Company, St. Paul, Minn.) to detect fluorescence.
(§3) A self-contained BI that is not completely inactivated (i.e., not all of the spores are killed by the sterilization process) will resume cellular functions upon activation of the BI. The production of glucosidase enzyme by surviving spores is an indication that at least one of the spores have not been inactivated (killed) by the sterilization process. The glucosidase enzyme cleaves the 4-methylumbelliferyl-glucoside (MUG) releasing the fluorescent methyl umbelliferone, which is detected using a bench-top fluorimeter. Growth and proliferation of spores in the self-contained biological indicator can also be detected by a pH change, which may be detected by a color change of the pH indicator in the growth medium.
(§4) Self-contained biological indicators were prepared (with various additives listed in table 4) as described above in this Example. For each additive tested, a lower range and a higher range was used as a preliminary screen to identify additives modulated the resistance of the spores to the sterilant. Five self-contained BIs representing each condition were exposed to hydrogen peroxide sterilization in STERRAD NX sterilizer. The sterilization processes used a constant injection volume (1.0 ml of 59% hydrogen peroxide) and various times (e.g., 20 seconds to 7 minutes) of exposure to the hydrogen peroxide. The self-contained BIs were activated after exposure to the sterilization process and were monitored for fluorescence using a bench-top fluorimeter) and pH based color change (visually). […]
(§5) Self-contained biological indicators (with various additives listed in table 5) were prepared as described in Example 2. The self-contained biological indicators were exposed to hydrogen peroxide in a STERRAD NX sterilizer as described in Example 2. The self-contained BIs were activated after exposure to the sterilization process and were monitored for fluorescence using a bench-top fluorimeter and pH based color change (visually).

[2] = tested on: Geobacillus stearothermophilus spores; assay: Resistance of self-contained biological indicators to hydrogen peroxide sterilization, growth readout by pH colour change (GRO+); type: cell-based
Procedure: as §1, §2, §3, §4, §5

[3] = Table 4, modulator 0.01 weight percent in spore coating solution, H2O2 exposure 30 sec.
[4] = Table 4, modulator 0.01 weight percent in spore coating solution, H2O2 exposure 60 sec.
[5] = Table 4, modulator 0.01 weight percent in spore coating solution, H2O2 exposure 90 sec.
[6] = Table 4, modulator 0.01 weight percent in spore coating solution, H2O2 exposure 3 min.
[7] = Table 4, modulator 0.01 weight percent in spore coating solution, H2O2 exposure 7 min.
[8] = Table 4, modulator 0.1 weight percent in spore coating solution, H2O2 exposure 30 sec.
[9] = Table 4, modulator 0.1 weight percent in spore coating solution, H2O2 exposure 60 sec.
[10] = Table 4, modulator 0.1 weight percent in spore coating solution, H2O2 exposure 90 sec.
[11] = Table 4, modulator 0.1 weight percent in spore coating solution, H2O2 exposure 3 min.
[12] = Table 4, modulator 0.1 weight percent in spore coating solution, H2O2 exposure 7 min.
[13] = Table 5, modulator 0.05 weight percent in spore coating solution, H2O2 exposure 20 sec.
[14] = Table 5, modulator 0.05 weight percent in spore coating solution, H2O2 exposure 30 sec.
[15] = Table 5, modulator 0.05 weight percent in spore coating solution, H2O2 exposure 60 sec.
[16] = Table 5, modulator 0.05 weight percent in spore coating solution, H2O2 exposure 90 sec.
[17] = Table 5, modulator 0.05 weight percent in spore coating solution, H2O2 exposure 3 min.
[18] = Table 5, modulator 0.05 weight percent in spore coating solution, H2O2 exposure 7 min.
[19] = Table 5, modulator 0.1 weight percent in spore coating solution, H2O2 exposure 20 sec.
[20] = Table 5, modulator 0.1 weight percent in spore coating solution, H2O2 exposure 30 sec.
[21] = Table 5, modulator 0.1 weight percent in spore coating solution, H2O2 exposure 60 sec.
[22] = Table 5, modulator 0.1 weight percent in spore coating solution, H2O2 exposure 90 sec.
[23] = Table 5, modulator 0.1 weight percent in spore coating solution, H2O2 exposure 3 min.
[24] = Table 5, modulator 0.1 weight percent in spore coating solution, H2O2 exposure 7 min.
[25] = Table 5, modulator 0.2 weight percent in spore coating solution, H2O2 exposure 20 sec.
[26] = Table 5, modulator 0.2 weight percent in spore coating solution, H2O2 exposure 30 sec.
[27] = Table 5, modulator 0.2 weight percent in spore coating solution, H2O2 exposure 60 sec.
[28] = Table 5, modulator 0.2 weight percent in spore coating solution, H2O2 exposure 90 sec.
[29] = Table 5, modulator 0.2 weight percent in spore coating solution, H2O2 exposure 3 min.
[30] = Table 5, modulator 0.2 weight percent in spore coating solution, H2O2 exposure 7 min.
[31] = Table 5, modulator 0.4 weight percent in spore coating solution, H2O2 exposure 20 sec.
[32] = Table 5, modulator 0.4 weight percent in spore coating solution, H2O2 exposure 30 sec.
[33] = Table 5, modulator 0.4 weight percent in spore coating solution, H2O2 exposure 60 sec.
[34] = Table 5, modulator 0.4 weight percent in spore coating solution, H2O2 exposure 90 sec.
[35] = Table 5, modulator 0.4 weight percent in spore coating solution, H2O2 exposure 3 min.
[36] = Table 5, modulator 0.4 weight percent in spore coating solution, H2O2 exposure 7 min.
[37] = Table 5, modulator 0.8 weight percent in spore coating solution, H2O2 exposure 20 sec.
[38] = Table 5, modulator 0.8 weight percent in spore coating solution, H2O2 exposure 30 sec.
[39] = Table 5, modulator 0.8 weight percent in spore coating solution, H2O2 exposure 60 sec.
[40] = Table 5, modulator 0.8 weight percent in spore coating solution, H2O2 exposure 90 sec.
[41] = Table 5, modulator 0.8 weight percent in spore coating solution, H2O2 exposure 3 min.
[42] = Table 5, modulator 0.8 weight percent in spore coating solution, H2O2 exposure 7 min.

SMILES: N=C(N)NCCC[C@H](N)C(=O)O [L-arginine]
- percentage of self-contained biological indicators positive for glucosidase enzyme activity (ENZ+) [1, 3]: 80%
- percentage of self-contained biological indicators positive for glucosidase enzyme activity (ENZ+) [1, 4]: 60%
- percentage of self-contained biological indicators positive for glucosidase enzyme activity (ENZ+) [1, 5]: 0%
- percentage of self-contained biological indicators positive for glucosidase enzyme activity (ENZ+) [1, 6]: 0%
- percentage of self-contained biological indicators positive for glucosidase enzyme activity (ENZ+) [1, 7]: 0%
- percentage of self-contained biological indicators positive for glucosidase enzyme activity (ENZ+) [1, 8]: 80%
- percentage of self-contained biological indicators positive for glucosidase enzyme activity (ENZ+) [1, 9]: 0%
- percentage of self-contained biological indicators positive for glucosidase enzyme activity (ENZ+) [1, 10]: 0%
- percentage of self-contained biological indicators positive for glucosidase enzyme activity (ENZ+) [1, 11]: 0%
- percentage of self-contained biological indicators positive for glucosidase enzyme activity (ENZ+) [1, 12]: 0%
- percentage of self-contained biological indicators positive for glucosidase enzyme activity (ENZ+) [1, 13]: 100%
- percentage of self-contained biological indicators positive for glucosidase enzyme activity (ENZ+) [1, 14]: 100%
- percentage of self-contained biological indicators positive for glucosidase enzyme activity (ENZ+) [1, 15]: 67%
- percentage of self-contained biological indicators positive for glucosidase enzyme activity (ENZ+) [1, 16]: 0%
- percentage of self-contained biological indicators positive for glucosidase enzyme activity (ENZ+) [1, 17]: 0%
- percentage of self-contained biological indicators positive for glucosidase enzyme activity (ENZ+) [1, 18]: 0%
- percentage of self-contained biological indicators positive for glucosidase enzyme activity (ENZ+) [1, 19]: 100%
- percentage of self-contained biological indicators positive for glucosidase enzyme activity (ENZ+) [1, 20]: 100%
- percentage of self-contained biological indicators positive for glucosidase enzyme activity (ENZ+) [1, 21]: 33%
- percentage of self-contained biological indicators positive for glucosidase enzyme activity (ENZ+) [1, 22]: 0%
- percentage of self-contained biological indicators positive for glucosidase enzyme activity (ENZ+) [1, 23]: 0%
- percentage of self-contained biological indicators positive for glucosidase enzyme activity (ENZ+) [1, 24]: 0%
- percentage of self-contained biological indicators positive for glucosidase enzyme activity (ENZ+) [1, 25]: 100%
- percentage of self-contained biological indicators positive for glucosidase enzyme activity (ENZ+) [1, 26]: 100%
- percentage of self-contained biological indicators positive for glucosidase enzyme activity (ENZ+) [1, 27]: 33%
- percentage of self-contained biological indicators positive for glucosidase enzyme activity (ENZ+) [1, 28]: 0%
- percentage of self-contained biological indicators positive for glucosidase enzyme activity (ENZ+) [1, 29]: 0%
- percentage of self-contained biological indicators positive for glucosidase enzyme activity (ENZ+) [1, 30]: 0%
- percentage of self-contained biological indicators positive for glucosidase enzyme activity (ENZ+) [1, 31]: 100%
- percentage of self-contained biological indicators positive for glucosidase enzyme activity (ENZ+) [1, 32]: 100%
- percentage of self-contained biological indicators positive for glucosidase enzyme activity (ENZ+) [1, 33]: 0%
- percentage of self-contained biological indicators positive for glucosidase enzyme activity (ENZ+) [1, 34]: 0%
- percentage of self-contained biological indicators positive for glucosidase enzyme activity (ENZ+) [1, 35]: 0%
- percentage of self-contained biological indicators positive for glucosidase enzyme activity (ENZ+) [1, 36]: 0%
- percentage of self-contained biological indicators positive for glucosidase enzyme activity (ENZ+) [1, 37]: 100%
- percentage of self-contained biological indicators positive for glucosidase enzyme activity (ENZ+) [1, 38]: 67%
- percentage of self-contained biological indicators positive for glucosidase enzyme activity (ENZ+) [1, 39]: 0%
- percentage of self-contained biological indicators positive for glucosidase enzyme activity (ENZ+) [1, 40]: 0%
- percentage of self-contained biological indicators positive for glucosidase enzyme activity (ENZ+) [1, 41]: 0%
- percentage of self-contained biological indicators positive for glucosidase enzyme activity (ENZ+) [1, 42]: 0%
- sensitivity of the biological indicator to the sterilization process relative to the control with no additives ([2]; Example 2 / Comparative Example 1 (Table 4), fluorescence and growth readouts): increased sensitivity (decreased resistance)
- sensitivity of the spores to the damaging/lethal effects of the sterilization process relative to the control with no additives ([2]; Example 3 (Table 5), fluorescence and growth readouts): increased sensitivity
- percentage of self-contained biological indicators positive for growth (GRO+) [2, 3]: 100%
- percentage of self-contained biological indicators positive for growth (GRO+) [2, 4]: 0%
- percentage of self-contained biological indicators positive for growth (GRO+) [2, 5]: 0%
- percentage of self-contained biological indicators positive for growth (GRO+) [2, 6]: 0%
- percentage of self-contained biological indicators positive for growth (GRO+) [2, 7]: 0%
- percentage of self-contained biological indicators positive for growth (GRO+) [2, 8]: 40%
- percentage of self-contained biological indicators positive for growth (GRO+) [2, 9]: 0%
- percentage of self-contained biological indicators positive for growth (GRO+) [2, 10]: 0%
- percentage of self-contained biological indicators positive for growth (GRO+) [2, 11]: 0%
- percentage of self-contained biological indicators positive for growth (GRO+) [2, 12]: 0%
- percentage of self-contained biological indicators positive for growth (GRO+) [2, 13]: 100%
- percentage of self-contained biological indicators positive for growth (GRO+) [2, 14]: 100%
- percentage of self-contained biological indicators positive for growth (GRO+) [2, 15]: 0%
- percentage of self-contained biological indicators positive for growth (GRO+) [2, 16]: 0%
- percentage of self-contained biological indicators positive for growth (GRO+) [2, 17]: 0%
- percentage of self-contained biological indicators positive for growth (GRO+) [2, 18]: 0%
- percentage of self-contained biological indicators positive for growth (GRO+) [2, 19]: 100%
- percentage of self-contained biological indicators positive for growth (GRO+) [2, 20]: 100%
- percentage of self-contained biological indicators positive for growth (GRO+) [2, 21]: 0%
- percentage of self-contained biological indicators positive for growth (GRO+) [2, 22]: 0%
- percentage of self-contained biological indicators positive for growth (GRO+) [2, 23]: 0%
- percentage of self-contained biological indicators positive for growth (GRO+) [2, 24]: 0%
- percentage of self-contained biological indicators positive for growth (GRO+) [2, 25]: 100%
- percentage of self-contained biological indicators positive for growth (GRO+) [2, 26]: 100%
- percentage of self-contained biological indicators positive for growth (GRO+) [2, 27]: 0%
- percentage of self-contained biological indicators positive for growth (GRO+) [2, 28]: 0%
- percentage of self-contained biological indicators positive for growth (GRO+) [2, 29]: 0%
- percentage of self-contained biological indicators positive for growth (GRO+) [2, 30]: 0%
- percentage of self-contained biological indicators positive for growth (GRO+) [2, 31]: 67%
- percentage of self-contained biological indicators positive for growth (GRO+) [2, 32]: 33%
- percentage of self-contained biological indicators positive for growth (GRO+) [2, 33]: 0%
- percentage of self-contained biological indicators positive for growth (GRO+) [2, 34]: 0%
- percentage of self-contained biological indicators positive for growth (GRO+) [2, 35]: 0%
- percentage of self-contained biological indicators positive for growth (GRO+) [2, 36]: 0%
- percentage of self-contained biological indicators positive for growth (GRO+) [2, 37]: 33%
- percentage of self-contained biological indicators positive for growth (GRO+) [2, 38]: 0%
- percentage of self-contained biological indicators positive for growth (GRO+) [2, 39]: 0%
- percentage of self-contained biological indicators positive for growth (GRO+) [2, 40]: 0%
- percentage of self-contained biological indicators positive for growth (GRO+) [2, 41]: 0%
- percentage of self-contained biological indicators positive for growth (GRO+) [2, 42]: 0%
